Source: US20140096967A1, “SALT-TOLERANT ANIONIC SURFACTANT COMPOSITIONS FOR ENHANCED OIL RECOVERY (EOR) APPLICATIONS” (Board of Regents, The University of Texas System, priority 2012, published 2014)
Where two headings read alike, the source gives them in different places. Marks after values point to notes of the source that are not given here.

Tests used:
[1] = Static adsorption test on disaggregated Berea sandstone core particles; format: physicochemical; conditions: 10,000 mg/L NaCl, LSR of 40, 12 hrs. equilibration at 25° C. (FIG. 19)
Description: Static Adsorption Tests. A static adsorption test was used for measuring surfactant adsorption at solid-water interfaces. The procedures were adopted from the study by Hanna et al. (1977). The adsorbents used for static adsorption tests were particles disaggregated from a Berea sandstone core and sieved through a 60 mesh screen ([…]). The use of 60 mesh screen is based on the consideration that a wider and thus more representative range of particle sizes could be included. The adsorbent grains were heated in the oven overnight and cooled in a desiccator over Drierite™ before use. The surfactant concentration was measured by Total Organic Carbon (TOC) method, which represents the amount of total carbon in the sample. […] The amount of surfactant adsorbed was determined by measuring different concentrations in the solution before and after contact with the adsorbents,
Where Γ (mg/g) is the surfactant adsorption density on the adsorbents; Co and C (mg/L) are surfactant concentrations before and after adsorption tests; V (ml) is the volume of surfactant solution used in the test, and M (gram) is the mass of the adsorbents used in the test. A dimensionless quantity θ can be defined as follows: […]
Equilibrium Adsorption Time. To ensure true equilibrium adsorption, the progression of 16-4-16 adsorption level with time was recorded to identify a suitable duration for equilibration. […]

[2] = conventional sodium alkylsulfates; data from O'Lenick; cited from earlier work
[3] = data from Mukerjee et al. (1971), cited from earlier work

Compound	maximum adsorption density, trend among surfactants [1]	Krafft Point [2]	CMC ([3]; 40° C.)	CMC ([3]; 30° C.)	CMC ([3]; 60° C.)
CCCCCCCCCCCCCCCCOS(=O)(=O)[O-].[Na+] [C16—SO4^− Na^+, sodium hexadecyl sulfate]	16-4-16<SHS<S13-C	45* ° C.	580** 10^−3 mmol/L	–	–
CCCCCCCCCCCCOS(=O)(=O)[O-].[Na+] [C12—SO4^− Na^+]	–	16* ° C.	8600** 10^−3 mmol/L	8230** 10^−3 mmol/L	10160** 10^−3 mmol/L
CCCCCCCCCCCCCCOS(=O)(=O)[O-].[Na+] [C14—SO4^− Na^+]	–	28* ° C.	2210** 10^−3 mmol/L	2080** 10^−3 mmol/L	2770** 10^−3 mmol/L
